Test results published in US12077503B2, “Substituted cyclic amides and their use as herbicides” (FMC CORPORATION, priority 2015, dated 2024).

Legend:
Format in all cases: in vivo
[1] = tested on: ryegrass, Italian (Italian ryegrass, Lolium multiflorum); assay: Test A preemergence; conditions: Lolium multiflorum, pre-emergence, 240 h, read-out: Plant response rating, Ryegrass, Italian
Method in brief: (§1)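 Seeded soil received test chemicals as a preemergence directed spray, and seedlings at one to two leaves, 2–10 cm tall, received them postemergence, in a non-phytotoxic, surfactant-containing solvent mixture. Pots were held in a greenhouse for approximately 10 d, then rated for injury from 0, no effect, to 100, complete control.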

[2] = tested on: giant foxtail (Setaria faberii); assay: Test A preemergence; conditions: Setaria faberi, pre-emergence, 240 h, read-out: Plant response rating, Foxtail, Giant
Method in brief: as §1

Kochia (Kochia scoparia) [3] = assay: Test A preemergence; conditions: Bassia scoparia, pre-emergence, 240 h, read-out: Plant response rating, Kochia
Method in brief: as §1

[4] = tested on: pigweed (Amaranthus retroflexus); assay: Test A preemergence; conditions: Amaranthus retroflexus, pre-emergence, 240 h, read-out: Plant response rating, Pigweed
[5] = tested on: barnyardgrass (Echinochloa crus-galli); assay: Test A preemergence; conditions: Echinochloa crus-galli, pre-emergence, 240 h, read-out: Plant response rating, Barnyardgrass
Method in brief: as §1

[6] = tested on: ragweed (common ragweed, Ambrosia elatior); assay: Test A preemergence; conditions: Ambrosia artemisiifolia, pre-emergence, 240 h, read-out: Plant response rating, Ragweed
Method in brief: as §1

[7] = tested on: ryegrass, Italian (Italian ryegrass, Lolium multiflorum); assay: Test A postemergence; conditions: Lolium multiflorum, post-emergence, 240 h
Method in brief: as §1

[8] = tested on: giant foxtail (Setaria faberii); assay: Test A postemergence; conditions: Setaria faberi, post-emergence, 240 h
Method in brief: as §1

[9] = tested on: blackgrass (Alopecurus myosuroides); assay: Test A postemergence; conditions: Alopecurus myosuroides, post-emergence, 240 h
Method in brief: as §1

Kochia (Kochia scoparia) [10] = assay: Test A postemergence; conditions: Bassia scoparia, post-emergence, 240 h
Method in brief: as §1

[11] = tested on: pigweed (Amaranthus retroflexus); assay: Test A postemergence; conditions: Amaranthus retroflexus, post-emergence, 240 h
Method in brief: as §1

[12] = tested on: Galium (catchweed bedstraw, Galium aparine); assay: Test A postemergence; conditions: Galium, post-emergence, 240 h
Method in brief: as §1

[13] = tested on: barnyardgrass (Echinochloa crus-galli); assay: Test A postemergence; conditions: Echinochloa crus-galli, post-emergence, 240 h
Method in brief: as §1

corn (Zea mays) = assay: Test A postemergence; conditions: Zea mays, post-emergence, 240 h
Method in brief: as §1

[14] = tested on: wheat (Triticum aestivum); assay: Test A postemergence; conditions: Triticum aestivum, post-emergence, 240 h
Method in brief: as §1

[15] = tested on: ragweed (common ragweed, Ambrosia elatior); assay: Test A postemergence; conditions: Ambrosia artemisiifolia, post-emergence, 240 h
Method in brief: as §1

[16] = 125 g ai/ha, preemergence, visual rating after approx. 10 d, 0 to 100 scale where 0 is no effect and 100 is complete control
[17] = Preemergence, 31 g ai/ha, 0 to 100 scale (0 no effect, 100 complete control)

CSc1ccccc1NC(=O)[C@H]1C(=O)N(C)CC[C@@H]1c1ccc2c(c1)OC(F)(F)O2 [Compound 814]
0%: pest or weed control at 125 g/ha [1, 16] | pest or weed control at 31 g/ha [1, 17] | pest or weed control at 125 g/ha [2, 16] | pest or weed control at 31 g/ha [2, 17] | pest or weed control at 125 g/ha (Kochia (Kochia scoparia) [3]; [16]) | pest or weed control at 31 g/ha (Kochia (Kochia scoparia) [3]; [17]) | pest or weed control at 125 g/ha [4, 16] | pest or weed control at 31 g/ha [4, 17] | pest or weed control at 125 g/ha [5, 16] | pest or weed control at 31 g/ha [5, 17] | pest or weed control at 125 g/ha [6, 16] | pest or weed control at 31 g/ha [6, 17] | pest or weed control at 125 g/ha ([7]; 125 g ai/ha, postemergence, visual injury rating after approximately 10 d, read-out: Ryegrass, Italian plant response rating (0 to 100 scale, 0 no effect, 100 complete control)) | pest or weed control at 31 g/ha ([7]; Postemergence, 31 g ai/ha, visual injury after approx. 10 d, 0 to 100 scale, 0 no effect, 100 complete control, read-out: Plant response rating, Ryegrass, Italian) | pest or weed control at 125 g/ha ([8]; 125 g ai/ha, postemergence, visual injury rating after approximately 10 d, read-out: Foxtail, Giant plant response rating (0 to 100 scale, 0 no effect, 100 complete control)) | pest or weed control at 31 g/ha ([8]; Postemergence, 31 g ai/ha, visual injury after approx. 10 d, 0 to 100 scale, 0 no effect, 100 complete control, read-out: Plant response rating, Foxtail, Giant) | pest or weed control at 125 g/ha ([9]; 125 g ai/ha, postemergence, visual injury rating after approximately 10 d, read-out: Blackgrass plant response rating (0 to 100 scale, 0 no effect, 100 complete control)) | pest or weed control at 31 g/ha ([9]; Postemergence, 31 g ai/ha, visual injury after approx. 10 d, 0 to 100 scale, 0 no effect, 100 complete control, read-out: Plant response rating, Blackgrass) | pest or weed control at 125 g/ha (Kochia (Kochia scoparia) [10]; 125 g ai/ha, postemergence, visual injury rating after approximately 10 d, read-out: Kochia plant response rating (0 to 100 scale, 0 no effect, 100 complete control)) | pest or weed control at 31 g/ha (Kochia (Kochia scoparia) [10]; Postemergence, 31 g ai/ha, visual injury after approx. 10 d, 0 to 100 scale, 0 no effect, 100 complete control, read-out: Plant response rating, Kochia) | pest or weed control at 125 g/ha ([11]; 125 g ai/ha, postemergence, visual injury rating after approximately 10 d, read-out: Pigweed plant response rating (0 to 100 scale, 0 no effect, 100 complete control)) | pest or weed control at 31 g/ha ([11]; Postemergence, 31 g ai/ha, visual injury after approx. 10 d, 0 to 100 scale, 0 no effect, 100 complete control, read-out: Plant response rating, Pigweed) | pest or weed control at 125 g/ha ([12]; 125 g ai/ha, postemergence, visual injury rating after approximately 10 d, read-out: Galium plant response rating (0 to 100 scale, 0 no effect, 100 complete control)) | pest or weed control at 31 g/ha ([12]; Postemergence, 31 g ai/ha, visual injury after approx. 10 d, 0 to 100 scale, 0 no effect, 100 complete control, read-out: Plant response rating, Galium) | pest or weed control at 125 g/ha ([13]; 125 g ai/ha, postemergence, visual injury rating after approximately 10 d, read-out: Barnyardgrass plant response rating (0 to 100 scale, 0 no effect, 100 complete control)) | pest or weed control at 31 g/ha ([13]; Postemergence, 31 g ai/ha, visual injury after approx. 10 d, 0 to 100 scale, 0 no effect, 100 complete control, read-out: Plant response rating, Barnyardgrass) | plant injury at 125 g/ha (corn (Zea mays); 125 g ai/ha, postemergence, visual injury rating after approximately 10 d, read-out: Corn plant response rating (0 to 100 scale, 0 no effect, 100 complete control)) | Corn plant response rating (crop injury, 0 = no effect, 100 = complete kill) at 31 g/ha (corn (Zea mays); Postemergence, 31 g ai/ha, visual injury after approx. 10 d, 0 to 100 scale, 0 no effect, 100 complete control) | plant injury at 125 g/ha ([14]; 125 g ai/ha, postemergence, visual injury rating after approximately 10 d, read-out: Wheat plant response rating (0 to 100 scale, 0 no effect, 100 complete control)) | plant injury at 31 g/ha ([14]; Postemergence, 31 g ai/ha, visual injury after approx. 10 d, 0 to 100 scale, 0 no effect, 100 complete control, read-out: Plant response rating, Wheat) | pest or weed control at 125 g/ha ([15]; 125 g ai/ha, postemergence, visual injury rating after approximately 10 d, read-out: Ragweed plant response rating (0 to 100 scale, 0 no effect, 100 complete control)) | pest or weed control at 31 g/ha ([15]; Postemergence, 31 g ai/ha, visual injury after approx. 10 d, 0 to 100 scale, 0 no effect, 100 complete control, read-out: Plant response rating, Ragweed)
